Measurements published in patent US20240208945A1, “6-CARBAMATE SUBSTITUTED HETEROARYL RING DERIVATIVES” (MEDSHINE DISCOVERY INC., priority 2021, published 2024).
Counter-ions that a name gives are not always drawn.

What was measured:
[1] = target: binding of KRAS(G12C) to SOS1 (Homo sapiens (Human), UniProt Q07889); assay: KRAS(G12C) and SOS1 binding assay (HTRF); conditions: 25° C., 60 minutes
From the text: The small molecular compound binds to the catalytic site of SOS1, thus inhibiting the binding of SOS1 to KRAS (G12C). When the binding of fluorescently labeled SOS1 protein to fluorescently labeled KRAS (G12C) protein is inhibited, the emitted fluorescence changes. The ability of small molecules to prevent the binding of SOS1 to KRAS (G12C) can be tested by detecting changes in fluorescence. A homogeneous time-resolved fluorescence (HTRF) binding assay was used to detect the ability of the compounds of the present disclosure to inhibit the binding of SOS1 to KRAS (G12C).
KRAS (G12C) protein was expressed and purified by Wuhan AtaGenix Biotechnology Co., Ltd., SOS1 exchange domin (564-1049) protein (Human recombinant) was purchased from Cytoskeleton, Mab Anti 6HIS-XL665 and Mab Anti GST-Eu cryptate were purchased from Cisbio. Multimode microplate reader Nivo5 was purchased from PerkinElmer.
1× buffer preparation (ready-to-use): Hepes: 5 mM; NaCl: 150 mM; EDTA: 10 mM; Igepal: 0.0025%; KF: 100 mM; DTT: 1 mM; BSA: […];
The test compounds were 5-fold diluted with DMSO using a multi-channel pipette to the 8th concentration, i.e., diluted from 1 mM to 0.064 μM.
The test compound was diluted by gradient with 1× buffer to a working solution with 2% DMSO. 5 μL/well of the working solution was added to corresponding wells, and the corresponding concentration gradient was 20 μM to […]. Duplicate experiment was set. The working solution was centrifuged at 1000 rpm for 1 minute.
A mixed working solution of KRAS(G12C) (200 nM) and Mab Anti GST-Eu cryptate (1 ng/μL) was prepared with 1× buffer, and the mixed working solution was incubated at 25° C. for 5 minutes, and 2.5 μL/well of the mixed working solution was added to the corresponding wells.
A mixed working solution of SOS1 (80 nM) and Mab Anti 6HIS-XL665 ([…]) was prepared with 1× buffer, and 2.5 μL/well of the mixed working solution was added to the corresponding wells. 2.5 μL of Mab Anti 6HIS-XL665 ([…]) diluent was added to blank wells. At this time, the final concentration gradient of the compound was diluted from 10 μM to 0.64 nM, KRAS(G12C) ([…]), MAb Anti GST-Eu cryptate (0.25 ng/μL), SOS1 (20 nM), Mab Anti 6HIS-XL665 (2 g/μL), the reaction system was placed at 25° C. for 60 minutes. After the reaction was completed, the multimode microplate reader was used to read HTRF.
Using the equation (Sample−Min)/(Max−Min)×100% to convert the raw data into inhibition rate, the IC50 value might be obtained by curve fitting with four parameters (obtained by “log (inhibitor) vs. response—Variable slope” mode in GraphPad Prism).

p-ERK in DLD-1 cells = assay: p-ERK inhibitory activity test in DLD-1 cells (HTRF Phospho-ERK1/2 kit); format: cell-based; conditions: Homo sapiens, 1 hour incubation
Procedure: DLD-1 cells were purchased from Nanjing Cobioer; 1640 medium was purchased from Biological Industries; fetal bovine serum was purchased from Biosera; Advanced Phospho-ERK1/2 (THR202/TYR204) KIT was purchased from Cisbio.
DLD-1 cells were seeded in a transparent 96-well cell culture plate, with 80 μL of cell suspension per well and 8000 DLD-1 cells per well. The cell plate was incubated in a carbon dioxide incubator at 37° C. overnight; • the test compound was diluted to 2 mM with 100% DMSO as the first concentration, and then 5-fold diluted to the 8th concentration with a pipette, that is, diluted from 2 mM to 0.026 μM. 2 μL of compound was added to 78 μL of cell starvation medium. After mixing well, 20 μL of compound solution was taken and added to the corresponding cell plate wells, and the cell plate was put back to the carbon dioxide incubator to continue to incubate for 1 hour; at this time, the concentration of the compound was from 10 μM to 0.128 nM, and the concentration of DMSO was 0.5%; • after the incubation was completed, the cell supernatant was discarded, and 50 μL of cell lysate was added to each well, and incubated at room temperature for 30 minutes with shaking; • Phospho-ERK1/2 Eu Cryptate antibody and Phospho-ERK1/2 d2 antibody were 20-fold diluted using Detection buffer; • 16 μL of cell lysate supernatant per well was put into a new 384 white microplate, then 2 μL of Phospho-ERK1/2 Eu Cryptate antibody diluent and 2 μL of Phospho-ERK1/2 d2 antibody diluent were added thereto and incubated at room temperature for 4 hours; • after the incubation was completed, a multimode microplate reader was used to read HTRF excitation: 320 nm, emission: 615 nm, 665 nm.
Using the equation (Sample−Min)/(Max−Min)*100% to convert the raw data into inhibition rate, the IC50 value might be obtained by curve fitting with four parameters (obtained by “log (inhibitor) vs. response—Variable slope” mode in GraphPad Prism). • Max well: Positive control well reading is 1× lysate • Min well: Negative control well reading is 0.5% DMSO cell well cell lysate

[2] = Pharmacokinetic evaluation in Balb/c mice (IV and oral); format: in vivo; conditions: male, mouse, plasma; for Cmax: IV 10 mg/kg and oral 50 mg/kg study, read-out: Peak concentration Cmax; for bioavailability / clearance / half-life / Vd: IV 10 mg/kg; for bioavailability / AUC(0-t): PO 50 mg/kg; for bioavailability: read-out: Bioavailability F; for clearance: read-out: Clearance rate CL; for half-life: read-out: Half life T1/2 (IV) (converted); for Vd: read-out: Volume of distribution at steady state Vdss; for AUC(0-t): read-out: Area under drug-time curve AUC0-last PO
Procedure: Balb/c mice (male, Beijing Vital River Laboratory Animal Technology Co., Ltd.)
The pharmacokinetic characteristics of the compound in rodents after intravenous injection and oral administration were tested according to the standard protocol. In the experiment, the candidate compound was formulated into clear solutions, and a single intravenous injection and oral administration were given to mice. The vehicle for intravenous injection and oral administration was a mixed vehicle composed of 5% dimethyl sulfoxide, 5% solutol, and 90% water. In this project, four male Balb/c mice were used, and two mice were administered intravenously at a dose of 10 mg/kg. Plasma samples were collected at 0.083, 0.25, 0.5, 1, 2, 4, 8, and 24 hours after administration. The other two mice were administered orally by gavage at a dose of 50 mg/kg. Plasma samples were collected at 0.25, 0.5, 1, 2, 4, 6, 8, 12, and 24 hours after administration. Blood samples were placed on ice after collection and centrifuged to separate plasma within 1 hour (centrifugation conditions: 6000 g, 3 minutes, 2 to 8° C.). Plasma samples were stored in a −80° C. refrigerator before analysis. The plasma concentration was quantitatively analyzed by LC-MS/MS analysis method, and the pharmacokinetic parameters were calculated, such as peak concentration (Cmax), clearance rate (CL), half-life (T1/2), volume of distribution at steady state (Vdss), area under drug-time curve (AUC0-last), bioavailability (F).

binding of KRAS(G12C) to SOS1, sequence (Q07889 564-1049, stated change not applied): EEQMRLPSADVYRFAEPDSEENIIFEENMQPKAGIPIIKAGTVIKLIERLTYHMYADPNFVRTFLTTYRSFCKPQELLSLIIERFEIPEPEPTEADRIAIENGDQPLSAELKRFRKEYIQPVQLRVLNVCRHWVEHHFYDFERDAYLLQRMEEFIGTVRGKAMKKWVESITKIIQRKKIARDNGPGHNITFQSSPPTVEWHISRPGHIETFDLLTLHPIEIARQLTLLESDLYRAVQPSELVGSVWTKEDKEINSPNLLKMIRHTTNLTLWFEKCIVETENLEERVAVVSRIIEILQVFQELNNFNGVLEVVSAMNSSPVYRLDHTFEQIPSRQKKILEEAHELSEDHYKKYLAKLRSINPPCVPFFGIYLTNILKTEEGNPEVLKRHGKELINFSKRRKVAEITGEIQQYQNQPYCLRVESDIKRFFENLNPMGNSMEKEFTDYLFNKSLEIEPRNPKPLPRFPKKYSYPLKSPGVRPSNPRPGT

Row | SMILES | IC50 [1] [nM] | IC50 (p-ERK in DLD-1 cells) [nM] | further results
1 | COc1cc2nc(C)nc(N[C@H](C)c3cc(N)cc(C(F)(F)F)c3)c2cc1OC(=O)N1CCN(C)CC1 [Compound 2] | 110 | 122 | 
2 | COc1cc2nc(C)nc(N[C@H](C)c3cc(N)cc(C(F)(F)F)c3)c2cc1OC(=O)N1CCC2(CCOC2)CC1 [Compound 7] | 92.8 |  | 
3 | COc1cc2nc(C)nc(N[C@H](C)c3cc(N)cc(C(F)(F)F)c3)c2cc1OC(=O)N1CCN(C2COC2)CC1 [Compound 9] | 83.6 |  | 
4 | COc1cc2nc(C)nc(N[C@H](C)c3cc(N)cc(C(F)(F)F)c3)c2cc1OC(=O)N1CCN2CCCC2C1 (stereo partly drawn) [Compound 10] |  | 86.2 | 
5 | COc1cc2nc(C)nc(N[C@H](C)c3cc(N)cc(C(F)(F)F)c3)c2cc1OC(=O)N1CCC2(CC1)CO[C@H](C)[C@@H]2N [Compound 11] | 78.6 |  | 
6 | COc1cc2nc(C)nc(N[C@H](C)c3cc(N)cc(C(F)(F)F)c3)c2cc1OC(=O)N1CCCN(C)CC1C (stereo partly drawn) [Compound 13] | 70.4 | 282 | 
7 | COc1cc2nc(C)nc(N[C@H](C)c3cccc(C(F)(F)C(C)(C)O)c3F)c2cc1OC(=O)N1CCN(C2COC2)CC12CC2 [Compound 24] | 47.9 |  | 
8 | COc1cc2nc(C)nc(N[C@H](C)c3cccc(C(F)F)c3F)c2cc1OC(=O)N1CCNCC12CC2 [Compound 25] | 86.1 |  | 
9 | COc1cc2nc(C)nc(N[C@H](C)c3cccc(C(F)F)c3F)c2cc1OC(=O)N1CCN(C2COC2)CC12CC2 [Compound 26] | 65.9 | 283 | 
10 | COc1cc2nc(C)nc(N[C@H](C)c3cc(N)cc(C(F)(F)F)c3F)c2cc1OC(=O)N1CCN(C)CC1C (stereo partly drawn) [Compound 27] | 40.6 | 112 | 
11 | COc1cc2nc(C)nc(N[C@H](C)c3cc(N)cc(C(F)(F)F)c3)c2cc1OC(=O)N1CCN(C)CC1C (stereo partly drawn) [Hydrochloride of compound 4] | 71.1 | 113 | 
12 | CCN1CCN(C(=O)Oc2cc3c(N[C@H](C)c4cc(N)cc(C(F)(F)F)c4)nc(C)nc3cc2OC)CC1 [Hydrochloride of compound 5] | 77.3 | 219 | 
13 | COc1cc2nc(C)nc(N[C@H](C)c3cc(N)cc(C(F)(F)F)c3)c2cc1OC(=O)N1CCNCC1 [Hydrochloride of compound 6] | 87.6 |  | 
14 | COc1cc2nc(C)nc(N[C@H](C)c3cc(N)cc(C(F)(F)F)c3)c2cc1OC(=O)N1CCC(N(C)C)CC1 [Hydrochloride of compound 8] | 73.7 |  | 
15 | COc1cc2nc(C)nc(N[C@H](C)c3cccc(C(F)(F)C4CCCO4)c3F)c2cc1OC(=O)N1CCN(C)CC1C (stereo partly drawn) [Hydrochloride of compound 15] | 149 |  | 
16 | COc1cc2nc(C)nc(N[C@H](C)c3cccc(C(F)(F)CO)c3)c2cc1OC(=O)N1CCN(C)CC1C (stereo partly drawn) [Hydrochloride of compound 16] | 59.6 | 222 | 
17 | COc1cc2nc(C)nc(N[C@H](C)c3cccc(C(F)(F)CO)c3F)c2cc1OC(=O)N1CCN(C)CC1C (stereo partly drawn) [Hydrochloride of compound 18] | 23.4 | 243 | 
18 | COc1cc2nc(C)nc(N[C@H](C)c3cccc(C(F)F)c3F)c2cc1OC(=O)N1CCN(C)CC1C (stereo partly drawn) [Hydrochloride of compound 19] | 105 |  | 
19 | COc1cc2nc(C)nc(N[C@H](C)c3cccc(C(F)(F)C(C)(C)O)c3F)c2cc1OC(=O)N1CCN(C)C[C@@H]1C [Hydrochloride of compound 28] | 14.5 | 91.5 | Cmax [2]: 4.59 µM; bioavailability [2]: 98.8%; clearance [2]: 36.7 mL/min/kg; half-life [2]: 6.01 h; Vd [2]: 11.5 L/kg; AUC(0-t) [2]: 37.5 µM·h
20 | COc1cc2nc(C)nc(N[C@H](C)c3cccc(C(F)(F)C(C)(C)O)c3F)c2cc1OC(=O)N1CCN(C)C[C@H]1C [Hydrochloride of compound 29] | 14.7 | 135 | Cmax [2]: 10.9 µM; bioavailability [2]: 91.2%; clearance [2]: 18.7 mL/min/kg; half-life [2]: 3.46 h; Vd [2]: 4.15 L/kg; AUC(0-t) [2]: 74.6 µM·h
